Results: ChEMBL document CHEMBL1138924, “Crystal structure, spectroscopic, and biological study of the copper(II) complex with third-generation quinolone antibiotic sparfloxacin” (2006)
Values after ≈ are worked out from the molar mass of the structure shown.

Legend:
Format in all cases: functional
Pseudomonas aeruginosa = test: Antimicrobial activity against Pseudomonas aeruginosa
Staphylococcus aureus = test: Antimicrobial activity against Staphylococcus aureus
Escherichia coli = test: Antimicrobial activity against Escherichia coli

MIC (Pseudomonas aeruginosa): 0.25 µg/mL (≈ 0.637 µM) | MIC (Staphylococcus aureus): 0.5 µg/mL (≈ 1.27 µM) | MIC (Escherichia coli): 8 µg/mL (≈ 20.4 µM)
Compound: C[C@@H]1CN(c2c(F)c(N)c3c(=O)c(C(=O)O)cn(C4CC4)c3c2F)C[C@H](C)N1 [SPARFLOXACIN]
